Measurements from PubChem BioAssay (NCI).
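Five concentrations, 48 hours, 96-well plates. GI50 is the concentration that inhibits growth by half. Definition used: TGI = concentration required for complete inhibition of growth.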

Experiments:
Test in all cases: NCI tumour cell line growth inhibition, 48 h
[1] = test system: UACC-62 melanoma
[2] = test system: UO-31 renal
[3] = test system: MDA-MB-435
[4] = test system: A549 NSCLC
[5] = test system: K-562 leukemia
[6] = test system: OVCAR-8 ovarian
[7] = test system: SW-620 colon
[8] = test system: COLO 205 colon
[9] = test system: SF-268 CNS
[10] = test system: PC-3 prostate

CCN(CC)CC[n+]1cc2cc(OC)c(OC)cc2c2ccc3cc4c(cc3c21)OCO4
GI50 [1]: 1.22 µM
TGI [1]: 4.89 µM
GI50 [2]: 2.61 µM
TGI [2]: 8.6 µM
GI50 [3]: 0.675 µM
TGI [3]: 2.14 µM
GI50 [4]: 0.376 µM
TGI [4]: 1.84 µM
GI50 [5]: 0.288 µM
GI50 [6]: 0.314 µM
TGI [6]: 2.11 µM
GI50 [7]: 0.442 µM
TGI [7]: 2.36 µM
GI50 [8]: 0.418 µM
TGI [8]: 2.48 µM
GI50 [9]: 0.386 µM
TGI [9]: 2.71 µM
GI50 [10]: 0.395 µM
TGI [10]: 2.25 µM

Cc1nn(C)c2cc(N(C)c3ccnc(Nc4cccc(S(N)(=O)=O)c4)n3)ccc12
GI50 [1]: 5.94 µM
TGI [1]: > 22.7 µM
GI50 [2]: 3.44 µM
TGI [2]: > 18.1 µM
GI50 [3]: 6.12 µM
TGI [3]: > 25 µM
GI50 [4]: 8.55 µM
TGI [4]: > 25 µM
GI50 [5]: 2.13 µM
TGI [5]: > 25 µM
GI50 [6]: 7.15 µM
TGI [6]: > 25 µM
GI50 [7]: 11.3 µM
TGI [7]: > 25 µM
GI50 [8]: > 17.3 µM
TGI [8]: > 25 µM
GI50 [9]: 6.39 µM
TGI [9]: > 25 µM
GI50 [10]: 7.17 µM
TGI [10]: > 25 µM

COc1cc(N2CCC(N3CCN(C)CC3)CC2)ccc1Nc1ncc(Cl)c(Nc2ccccc2S(=O)(=O)C(C)C)n1
GI50 [1]: 1.18 µM
TGI [1]: 3.39 µM
GI50 [2]: 1.12 µM
TGI [2]: 2.44 µM
GI50 [3]: 0.387 µM
TGI [3]: 2.36 µM
GI50 [4]: 0.402 µM
TGI [4]: 2.03 µM
GI50 [5]: 1.67 µM
TGI [5]: 5.41 µM
GI50 [6]: 2.1 µM
TGI [6]: 7.76 µM
GI50 [7]: 0.337 µM
TGI [7]: 2.52 µM
GI50 [8]: 0.114 µM
TGI [8]: 0.469 µM
GI50 [9]: 0.813 µM
TGI [9]: 2.44 µM
GI50 [10]: 2.16 µM
TGI [10]: 11.7 µM

Nc1ccc(-c2ccc(-c3nc4cc(Cl)c(Cl)cc4[nH]3)cc2)cc1
GI50 [1]: < 0.0215 µM
TGI [1]: > 45 µM
GI50 [2]: 0.674 µM
TGI [2]: 13.3 µM
GI50 [3]: 0.199 µM
TGI [3]: > 84.7 µM
GI50 [4]: 1.46 µM
TGI [4]: > 100 µM
GI50 [5]: 4.32 µM
TGI [5]: > 100 µM
GI50 [6]: 14.5 µM
TGI [6]: > 92.9 µM
GI50 [7]: < 0.0313 µM
TGI [7]: > 100 µM
GI50 [8]: 0.0953 µM
TGI [8]: > 37.7 µM
TGI [9]: 9.24 µM
GI50 [10]: 7.99 µM
TGI [10]: > 61.2 µM

O=c1ccnc(SCc2ccc(Cl)cc2)[nH]1
TGI [1]: > 100 µM
TGI [2]: > 100 µM
TGI [3]: > 100 µM
TGI [4]: > 100 µM
TGI [5]: > 100 µM
TGI [6]: > 100 µM
TGI [7]: > 100 µM
TGI [8]: > 100 µM
TGI [9]: > 100 µM
TGI [10]: > 100 µM

C=C(CN(C)C)C(=O)c1ccc(Oc2ccccc2)cc1
TGI [1]: 13 µM
TGI [2]: 8.72 µM
TGI [3]: 10.3 µM
TGI [4]: 42.6 µM
TGI [5]: 12.5 µM
TGI [6]: 25.3 µM
TGI [7]: 9.27 µM
TGI [8]: 3.35 µM
TGI [9]: 32.5 µM
TGI [10]: 11.6 µM

N#CSc1ccc(S(N)(=O)=O)cc1
TGI [1]: > 100 µM
TGI [2]: 35.2 µM
TGI [3]: > 100 µM
TGI [4]: > 100 µM
TGI [5]: > 100 µM
TGI [6]: > 100 µM
TGI [7]: 98.9 µM
TGI [8]: > 100 µM
TGI [9]: > 100 µM
TGI [10]: > 100 µM

COc1ccc2c(c1)C(=O)c1c-2c(NCCN(C)C)nc2ccccc12
GI50 [1]: 15.8 µM
TGI [1]: 29.4 µM
GI50 [2]: 9.98 µM
TGI [2]: 22 µM
GI50 [3]: 5.06 µM
TGI [3]: 20.4 µM
GI50 [4]: 0.946 µM
TGI [4]: 4.49 µM
GI50 [5]: 2.62 µM
TGI [5]: 14.8 µM
GI50 [6]: 0.496 µM
TGI [6]: 5.53 µM
GI50 [7]: 3.4 µM
TGI [7]: 14 µM
GI50 [8]: 4.51 µM
TGI [8]: 19.3 µM
GI50 [9]: 2.97 µM
TGI [9]: 15.5 µM
GI50 [10]: 2.93 µM
TGI [10]: 14.2 µM

CN1CCN(CC(=O)N2c3cccc4cccc(c34)N(C(=O)CN3CCN(C)CC3)C2c2cn(-c3ccccc3)nc2-c2cccc([N+](=O)[O-])c2)CC1
GI50 [1]: 1.77 µM
TGI [1]: 3.38 µM
GI50 [2]: 1.32 µM
TGI [2]: 2.75 µM
GI50 [3]: 1.98 µM
TGI [3]: 3.93 µM
GI50 [4]: 3.21 µM
TGI [4]: 13.2 µM
GI50 [5]: 1.22 µM
TGI [5]: 3.81 µM
GI50 [6]: 2.35 µM
TGI [6]: 5.79 µM
GI50 [7]: 1.91 µM
TGI [7]: 4.37 µM
GI50 [8]: 1.84 µM
TGI [8]: 3.82 µM
GI50 [9]: 1.95 µM
TGI [9]: 4.95 µM
GI50 [10]: 2.8 µM
TGI [10]: 10.4 µM

Nc1nc(-c2ccccc2)cc(-c2ccc(Cl)cc2)c1-c1nc2ccccc2o1
GI50 [1]: 16.6 µM
TGI [1]: 30.6 µM
GI50 [2]: 8.36 µM
TGI [2]: 21.3 µM
GI50 [3]: 17.6 µM
TGI [3]: 35.3 µM
GI50 [4]: 14.9 µM
TGI [4]: 31.4 µM
GI50 [5]: 10.9 µM
TGI [5]: 29.3 µM
GI50 [6]: 18.7 µM
TGI [6]: 61.2 µM
GI50 [7]: 14.9 µM
TGI [7]: 29.3 µM
GI50 [8]: 21.4 µM
TGI [8]: 37.3 µM
GI50 [9]: 10.9 µM
TGI [9]: 27.7 µM
GI50 [10]: 2.95 µM
TGI [10]: 14.2 µM

COc1ccc2nc(-c3cc4c([nH]c5ccccc54)c(-c4ccc(F)c(F)c4)n3)[nH]c2c1
GI50 [1]: 2.76 µM
TGI [1]: 10.2 µM
GI50 [2]: 1.46 µM
TGI [2]: 16.1 µM
GI50 [3]: 3.69 µM
TGI [3]: 15.4 µM
GI50 [4]: 4.05 µM
TGI [4]: 17.6 µM
GI50 [5]: 3.35 µM
TGI [5]: 24.4 µM
GI50 [6]: 3.08 µM
TGI [6]: 18.1 µM
GI50 [7]: 4.82 µM
TGI [7]: 23.7 µM
GI50 [8]: 1.88 µM
TGI [8]: 4.66 µM
GI50 [9]: 5.8 µM
TGI [9]: 69.6 µM
GI50 [10]: 3.25 µM
TGI [10]: 22.5 µM
